# In patent publication US5324730A, “Phenoxyphosphoryloxymethyl cyclobutyl purines” (Nippon Kayaku Kabushiki Kaisha, priority 1990, dated 1994):
# Key:
# [1] = Oral absorbability: plasma concentration of Compound 1a (B^1 = 9-guanyl) in mice after oral or intravenous administration (Method 4); assay type: in vivo; conditions: Compound 1a (B^1 = 9-guanyl) in plasma, male CDF1 mice; for AUC, intravenous injection / Tmax, intravenous injection: 75 μM/kg intravenous; for AUC, oral administration / Tmax, oral administration: 75 μM/kg oral
# Procedure: Oral absorbability of compounds of this invention were tested according to the following method.
# Male CDF1 mice (6-8 weeks in age) (Japan Charles Liver Co.) were used. Each substance to be tested was dissolved into physiological salt solution, and its 75 μM/kg dosage (0.1-0.5 ml/10 g dosage) was administered orally or intravenously. Ten minutes, thirty minutes, one hour and 3 hours after the administration, blood was taken from 2-3 heads of mice by means of an injection tube previously treated with heparin, and the blood was centrifuged at 3,000 rpm for 10 minutes to obtain a plasma. To 200 μl of the plasma was added 9-[2-hydroxy-3-hydroxymethylcyclobutan-1-yl]-guanine (2 μg/10 μl […]) as an internal standard. After diluting it with 4 ml of water, it was washed with 2 ml of water by the use of Ceppack C18 Cartridge (Millipore Waters Co.). It was eluted with 5 ml of methanol, concentrated to dryness, re-dissolved into 200 μl of water, and then subjected to HPLC to measure the concentration of 9-((1R,2R,3S)-2,3-bis(hydroxymethyl)-1cyclobutyl) guanine (Compound 1a, wherein B^1 =9-guanyl), from which maximum concentration (Cmax), time of maximum concentration (Tmax) and the area under the concentration curve (AUC) were determined.
# Column: Cosmosil 5C18-P (Nacalai Tesque, 250 mm×4.6 mm, i.d.)
# Solvent: 0.1. M citric acid (pH 4): acetonitrile:methanol=50:2:1
# hepatitis B virus (HBV) = test: Antiviral activity against HBV, inhibition of HBV DNA synthesis in HB611 cells (Method 3); assay type: cell-based; conditions: 360 h, 50% inhibition of HBV DNA synthesis, 15 days, read-out: ID50 HBV
# Procedure: Antiviral activity against hepatitis B virus (HBV) which is a DNA virus was tested by the following method.
# The test was done by using a cell line, HB611, that was established by transfection and continuously produces HBV like particles [Proc. Natl. Acad. Sci. USA, 84, 444-449, 1987]. HB611 cells were maintained in Dulbecco's modified Eagle medium (Gibco) supplemented with 10% fetal bovine serum (Gibco), 100 μg/ml of streptomycin, 100 IU ml of benzyl penicillin (Gibco) and 200 μg/ml of geneticin (Gibco) at 37° C. in 5% CO2 -95% air.
# The cells were seeded in 24-well plate (Corning) at a density of 3×10^4 cells/well, using 1.0 ml of the medium. After 2 days of incubation, the medium was replaced with the same medium containing the test compound. The cells were incubated for a further 15 days, during which time the medium containing the drug was exchanged every three days. The cells were then harvested and cellular DNA was prepared [Virology, 169, 213-216, 1989], and digested with restriction enzyme Hind III (Takara Shuzo Co., Ltd.). An aliquot (2-3 μg) was electrophoresed in 1.5% agarose gel, followed by blotting onto a nylon membrane Hybond-N^+ according to Southern [J. Mol. Biol., 98, 503-517, 1975]. The filter was hybridized to random primed 32p labeled HBV DNA probe, and washed twice with 2× standard saline citrate containing 0.1% SDS at 65° C. for 30 min. It was then autoradiographed, and the results were analyzed using a densitometric analyzer (Shimadzu, Chromatoscana S930).
# To quantitatively evaluate the inhibitory activity of the compounds, we measured the band areas S, D1, D2 (S, D1 and D2 represent intracellular free HBV DNA derived from replicative intermediates) and I (represents chromosomally integrated HBV DNA) by densitometric analyzer, and calculated the inhibition percentage as follows: [formula]
# In table 1, antiviral activity is represented by 50% inhibition doses (ID50) on HBV DNA synthesis.
# [2] = tested on: Herpes simplex 1 virus (HSV-1); test: Antiviral activity against HSV-1, CPE inhibition in Vero cells (Method 1); assay type: cell-based; conditions: Human alphaherpesvirus 1, 50% inhibition of CPE, about 72 hours, Neutral Red
# Procedure: Antiviral activity against Herpes simplex 1 virus (HSV-1) which is a DNA virus was tested by the following method.
# Vero cells (originated from kidney cells of African Green Monkey) were cultured in MEM medium to which 10% bovine embryo serum had been added. A cell suspension adjusted to a concentration of 200,000 cells/ml was spread onto 96 wells plate (COSTAR) and cultured for 24 hours so that the cells became confluent. To the medium drawn out was added HSV-1 virus, and it was infected for one hour. Then, the virus fluid was drawn out and cultured for about 72 hours in a fresh medium containing agents. The alive cells were stained with a staining solution containing Neutral Red and absorbance at a wavelength of 546 nm (A546) was measured to evaluate the cytopathic effect (CPE).
# CPE inhibition (%) was calculated according to the following equation: [formula] and a quantity of sample enough for 50% inhibition of the CPE due to virus was taken as IC50 (μg/ml).
# [3] = tested on: human cytomegalo-virus (HCMV); test: Antiviral activity against HCMV, plaque reduction in human embryonic fibroblasts (Method 2); assay type: cell-based; conditions: Human betaherpesvirus 5, Fibroblast, plaque number reduced to 50%, 9 or 10 days
# Procedure: Antiviral activity against human cytomegalo-virus (HCMV) which is a DNA virus was tested by the following method.
# Confluent monolayers of human embryonic fibroblasts in plastic dishes (diameter: 35 mm) were infected with 100 to 150 plaque forming units of HCMV. After an 1-hour adsorption period at 37° C., the cultures were overlaid with 2 ml of 0.5% agarose in Eagle's minimum essential medium containing 3% fetal calf serum and various concentrations of drugs. The cultures infected with HCMV were fixed and stained at 9 or 10 days after infection. The second agarose overlay containing appropriate concentrations of drugs was added 5 days after infection. Plaque numbers were counted by using a dissecting microscope at ×20 magnification. The antiviral activities of drugs were expressed in terms of median effective concentrations (EC50) which were defined as the drug concentrations that reduced the number of plaques to 50%.
Structure (SMILES),"AUC, intravenous injection [1] [ng·h/mL]","Tmax, intravenous injection [1]","AUC, oral administration [1] [ng·h/mL]","Tmax, oral administration [1]",IC50 (hepatitis B virus (HBV)) [µg/mL],IC50 [2] [µg/mL],EC50 [3] [µg/mL]
"Nc1nc2c(ncn2[C@@H]2C[C@H](CO)[C@H]2COP(=O)(O)Oc2ccccc2)c(=O)[nH]1 [Compound 13, 9-[(1R,2R,3S)-3-hydroxymethyl-2-(hydroxy-(phenoxy)phosphoryl)oxymethyl-1-cyclobutyl]-guanine]",2962,10 ',1122,30 ',,,
"Nc1nc2c(ncn2[C@@H]2C[C@H](COP(=O)(O)Oc3ccccc3)[C@H]2CO)c(=O)[nH]1 [Compound 14, 9-[(1R,2R,3S)-2-hydroxymethyl-3-(hydroxy-(phenoxy)phosphoryl)oxymethyl-1-cyclobutyl]-guanine]",5076,10 ',2262,30 ',,,
"Nc1nc2c(ncn2[C@@H]2C[C@H](COP(=O)(O)Oc3ccccc3Cl)[C@H]2CO)c(=O)[nH]1 [Compound 50, 9-[(1R,2R,3S)-2-hydroxymethyl-3-(hydroxy(2-chlorophenoxy)phosphoryl)oxymethyl-1-cyclobutyl]-guanine]",3177,10 ',1526,30 ',~0.1,1.13,1 to 3
"Nc1nc2c(ncn2[C@@H]2C[C@H](COP(=O)(O)Oc3cccc(Cl)c3)[C@H]2CO)c(=O)[nH]1 [Compound 53, 9[-(1R,2R,3S)-2-hydroxymethyl-3-(hydroxy(3-chlorophenoxy)phosphoryl)oxymethyl-1-cyclobutyl]-guanine]",3228,10 ',1405,30 ',0.1 to 1,1.22,1 to 3
"Nc1nc2c(ncn2[C@@H]2C[C@H](COP(=O)(O)Oc3ccc(Cl)cc3)[C@H]2CO)c(=O)[nH]1 [Compound 56, 9-[(1R,2R,3S)-2-hydroxymethyl-3-(hydroxy(4-chlorophenoxy)phosphoryl)oxymethyl-1-cyclobutyl]-guanine]",3167,10 ',1762,10 ',0.1 to 1,0.699,1 to 3
"Nc1nc2c(ncn2[C@@H]2C[C@H](COP(=O)(O)Oc3ccc(F)cc3)[C@H]2CO)c(=O)[nH]1 [Compound 65, 9-[(1R,2R,3S)-2-hydroxymethyl-3-(hydroxy(4-fluorophenoxy)phosphoryl)oxymethyl-1-cyclobutyl]-guanine]",6373,10 ',1712,30 ',0.1 to 1,1.13,1 to 3
"Cc1ccc(OP(=O)(O)OC[C@H]2C[C@@H](n3cnc4c(=O)[nH]c(N)nc43)[C@@H]2CO)cc1 [Compound 68, 9-[(1R,2R,3S)-2-hydroxymethyl-3-(hydroxy(4-methylphenoxy)phosphoryl)oxymethyl-1-cyclobutyl]-guanine]",4116,10 ',1754,30 ',0.1 to 1,1.26,0.1 to 1
"COc1ccc(OP(=O)(O)OC[C@H]2C[C@@H](n3cnc4c(=O)[nH]c(N)nc43)[C@@H]2CO)cc1 [Compound 71, 9-[(1R,2R,3S)-2-hydroxymethyl-3-(hydroxy(4-methoxyphenoxy)phosphoryl)oxymethyl-1-cyclobutyl]-guanine]",4393,10 ',1678,10 ',0.1 to 1,0.873,0.1 to 1
